# Patent US7129346B2, “Crown ether derivatives” (Molecular Probes, Inc., priority 2000, dated 2006)
# Entries after “also recorded” stand apart in the source; their conditions may differ.
# How the values were obtained:
# [1] = Indicator fluorescence response titration, dissociation constant for Na+; assay type: binding
# Experimental: (§1) The fluorescence response of a selected compound of the invention as a function of ion concentration was determined by dissolving a sample of the pure compound in 3 mL of each of two solutions: solution 1 (“high”) consists of 200 mM NaCl (or other appropriate ion) and 10 mM MOPS buffer at pH 7.05; solution 2 (“zero”) consists of 10 mM MOPS buffer at pH 7.05 in deionized water. […]. A least-squares fit was used to arrive at the concentration where the selected indicator was maximally sensitive to changes in Na^+ concentration. This corresponded to the dissociation constant of that indicator for Na^+ and was expressed as a concentration.
# (§2) This methodology was repeated for K+, Li+ and Tb+ to obtain emission spectra and to calculate the Kd values. See, Table 2 and FIG. 4
# For visible wavelength probes such as Compound 22 (Example 17), Compound 27 (Example 22) and Compound 86 (Example 79) the indicator's fluorescence emission was typically scanned from 450–650 nm while the sample was excited at the absorption maximum wavelength. For UV-excitable ratiometric probes such as Compound 51 (Example 46), the excitation wavelengths of the dye in solution 2 were scanned from 260 to 450 nm while monitoring constant fluorescence emission at 510 nm (as in FIG. 1). […]
# [2] = test system: Jurkat cells; experiment: Calibration of sodium indicator fluorescence response in cells (flow cytometry); assay type: cell-based; details: 2 μM gramicidin, extracellular Na+ 0-145 mM, excitation 488 nm; for Intracellular fluorescence response to increasing intracellular Na^+ concentration: Jurkat cells, 5 μM Compound 25 or 10 μM Compound 87
# Experimental: Jurkat cells were loaded with a 5 μM solution of either Compound 25 (Example 20), or commercially available SODIUM GREEN tetraacetate indicator (Molecular Probes, Inc., Eugene, Oreg.) and 10 μM for Compound 87 (Example 80) for 30 minutes at 37° C. The use of PLURONIC dispersing agent helped dissolve the selected indicator. Intracellular sodium concentrations were then established by varying the sodium concentration of the extracellular buffer in the presence of 2 μM gramicidin (a sodium-pore forming antibiotic). The extracellular buffer was set at 0 mM, 10 mM, 20 mM, 50 mM, 100 mM, and 145 mM, respectively. Intracellular fluorescence response of the selected indicators was measured using a FACSCAN flow cytometer and associated software, with fluorescence excitation at 488 nm.
# [3] = Indicator fluorescence response titration, dissociation constant for Ca2+; assay type: binding; details: Table 1, Formula (I) compounds, read-out: Dissociation Constant (target ion) Kd (Ca^2+)
# Experimental: as §1
# [4] = Indicator fluorescence response titration, dissociation constant for Zn2+; assay type: binding; details: Table 1, Formula (I) compounds; approximate values; read-out: Dissociation Constant (target ion) Kd (Zn^2+)
# Experimental: as §1
# [5] = Indicator fluorescence response titration, dissociation constant for K+; assay type: binding
# Experimental: The fluorescence response of a selected compound of the invention as a function of ion concentration was determined by dissolving a sample of the pure compound in 3 mL of each of two solutions: solution 1 (“high”) consists of 200 mM NaCl (or other appropriate ion) and 10 mM MOPS buffer at pH 7.05; solution 2 (“zero”) consists of 10 mM MOPS buffer at pH 7.05 in deionized water. A series of curves are generated by cross dilution between the two solutions to arrive at intermediate concentrations of Na+, K+, Li+ and Tb+. The emission of a selected indicator in solution 2 was scanned and then was repeated to cover the entire range from zero to 200 mM Na^+. For example, the fluorescence emission of the chosen indicator was scanned while the sample was excited at that indicator's absorption maximum wavelength, and then 1/100 of the sample was removed and replaced with 1/100 of solution 1 to arrive at a Na^+ concentration of 2 mM. This dilution was repeated to cover the entire range from zero to […] Na^+ and the resulting emission intensities were plotted versus the ion concentrations. A least-squares fit was used to arrive at the concentration where the selected indicator was maximally sensitive to changes in Na^+ concentration. This corresponded to the dissociation constant of that indicator for Na^+ and was expressed as a concentration.
# as §2
# (§3) For visible wavelength probes such as Compound 22 (Example 17), Compound 27 (Example 22) and Compound 86 (Example 79) the indicator's fluorescence emission was typically scanned from 450–650 nm while the sample was excited at the absorption maximum wavelength. For UV-excitable ratiometric probes such as Compound 51 (Example 46), the excitation wavelengths of the dye in solution 2 were scanned from 260 to 450 nm while monitoring constant fluorescence emission at 510 nm (as in FIG. 1).
# [6] = Indicator fluorescence response titration, dissociation constant for Li+; assay type: binding; details: Table 2, Formula (II) compounds, in solution
# Experimental: as §1, §2, §3
# [7] = Indicator fluorescence response titration, dissociation constant for Rb+; assay type: binding; details: Table 2, Formula (II) compounds, in solution
# Experimental: as §1, §2, §3
# [8] = Table 1, Formula (I) compounds, approximate values, read-out: Dissociation Constant (target ion) Kd (Na^+)
# [9] = Table 2, Formula (II) compounds, in solution
# [10] = Table 2, Formula (II) compounds, in solution, 10 mM MOPS pH 7.05, read-out: Dissociation constant Kd (Na^+)
smiles,measurement,setting,value
COC(=O)CN1CCOCCN(CC(=O)OC)c2ccc(-c3c4cc(F)c(=O)cc-4oc4cc(O)c(F)cc34)cc2OCCOc2cc(C)ccc21,Kd,[1]; [8],~60 mM
COC(=O)CN1CCOCCOCCOCCOc2cc(-c3c4cc(F)c(=O)cc-4oc4cc(OCOC(C)=O)c(F)cc34)ccc21 [Compound 87],Intracellular fluorescence response to increasing intracellular Na^+ concentration,[2],increased fluorescent signal with increasing concentrations of sodium ions
Cc1ccc2c(c1)OCCOc1cc(-c3c4cc(F)c(=O)cc-4oc4cc(O)c(F)cc34)ccc1N(CC(=O)O)CCOCCN2CC(=O)O,Kd,[3]; approximate values,~0.005 mM
same,Kd,[4],~0.0003 mM
same,Kd,[1]; [8],~36 mM
O=C([O-])CN1CCOCCOCCOCCOc2cc(-c3c4cc(F)c(=O)cc-4oc4cc(O)c(F)cc34)ccc21.[K+] [Compound 127],"Response to complexation (R = F/F0), R (Na^+)",[1]; [9],3.6
same,Kd,[1]; [10],20 mM
Cc1ccc2c(c1)OCCOc1cc(-c3c4ccc(=[N+](C)C)cc-4oc4cc(N(C)C)ccc34)ccc1N(CC(N)=O)CCOCCN2CC(N)=O,Kd,[4],~0.65 mM
COC(=O)CN1CCOCCOCCOCCOc2cc(-c3cc4ccc(C(=O)OC)cc4[nH]3)ccc21 [Compound 93],Dissociation constant Kd (K^+),"[5]; Table 2, Formula (II) compounds, in solution, 10 mM MOPS pH 7.05",Kd (K^+) = no sensitivity
same,"Response to complexation (R = F/F0), R (Na^+)",[1]; [9],25
same,Kd,[1]; [10],89 mM
Cc1ccc2c(c1)OCCOc1cc(-c3c4ccc(=[N+](C)C)cc-4oc4cc(N(C)C)ccc34)ccc1N(CC(=O)O)CCOCCN2CC(=O)[O-],Kd,[3]; approximate values,~0.004 mM
same,Kd,[4],~0.0003 mM
same,Kd,[1]; [8],~38 mM
CCCCCCCCCCCCCCCCCCNC(=O)COc1cc2c(cc1-c1c3ccc(=[N+](C)C)cc-3oc3cc(N(C)C)ccc13)OCCOc1cc(C)ccc1N(CC(=O)OC)CCOCCN2CC(=O)OC,Kd,[1]; [8],~14 mM
COC(=O)CN1CCOCCN(CC(=O)OC)c2cc(OCC(=O)O)c(-c3cc4ccc(C(=O)OC)cc4[nH]3)cc2OCCOc2cc(C)ccc21,Kd,[1]; [8],~52 mM
COC(=O)CN1CCOCCN(CC(=O)OC)c2cc(OCC(=O)NC(CC(=O)O)C(=O)[O-])c(-c3c4ccc(=[N+](C)C)cc-4oc4cc(N(C)C)ccc34)cc2OCCOc2cc(C)ccc21 (centres unmarked),Kd,[1]; [8],~85 mM
COC(=O)CN1CCOCCN(CC(=O)OC)c2cc3oc(-c4ncc(C(=O)O)o4)cc3cc2OCCOc2cc(C)ccc21,Kd,[1]; [8],~52 mM
Cc1ccc2c(c1)OCCOc1cc3cc(-c4ncc(C(=O)O)o4)oc3cc1N(CC(=O)O)CCOCCN2CC(=O)O,Kd,[3]; approximate value,~0.0004 mM
COC(=O)c1ccc2cc(-c3ccc4c(c3)OCCOCCOCCOCCN4CCN(C)C)[nH]c2c1 [Compound 126],"Response to complexation (R = F/F0), R (Na^+)",[1]; [9],−1.2
COCCN1CCOCCOCCOCCOc2cc(-c3c4cc(F)c(=O)cc-4oc4cc(O)c(F)cc34)ccc21 [Compound 115],"Response to complexation (R = F/F0), R (K^+)",[5]; [9],2.8
same,"Response to complexation (R = F/F0), R (Na^+)",[1]; [9],5.9
same,Kd,[1]; [10],78.8 mM
COC(=O)CN1CCOCCN(CC(=O)OC)c2cc(OCC(=O)[O-])c(-c3c4ccc(=[N+](C)C)cc-4oc4cc(N(C)C)ccc34)cc2OCCOc2cc(C)ccc21,Kd,[1]; [8],~92 mM
Cc1ccc2c(c1)OCCOc1cc(C3=c4cc5c6c(c4Oc4c3cc3c7c4CCCN7CCC3)CCC[N+]=6CCC5)ccc1N(CC(=O)O)CCOCCN2CC(=O)[O-],Kd,[3]; approximate values,~0.007 mM
same,Kd,[4],~0.008 mM
COC(=O)OCOC(=O)CN1CCOCCN(CC(=O)OCOC(C)=O)c2ccc(C)cc2OCCOc2cc(C3=C4C=C(F)C(O)C=C4Oc4cc(OCOC(C)=O)c(F)cc43)ccc21 (centres unmarked) [Compound 25],Intracellular fluorescence intensity compared with SODIUM GREEN indicator,"[2]; Jurkat cells loaded with 5 μM for 30 minutes at 37° C., FIG. 3",stronger fluorescence intensity than SODIUM GREEN sodium indicator; also recorded: substantially brighter intracellular fluorescence intensity than the SODIUM GREEN indicator
same,Intracellular fluorescence response to increasing intracellular Na^+ concentration,[2],consistent increase in fluorescence intensity
COC(=O)CN1CCOCCN(CC(=O)OC)c2ccc(-c3cc4ccc(C(=O)OC)cc4[nH]3)cc2OCCOc2cc(C)ccc21,Kd,"[5]; Table 1, Formula (I) compounds, approximate value printed in nM, read-out: Dissociation Constant (target ion) Kd (K^+)",~115 nM
same,Kd,[1]; [8],~30 mM
Cc1ccc2c(c1)OCCOc1cc(-c3c4ccc(=[N+](C)C)cc-4oc4cc(N(C)C)ccc34)c(OCC(=O)O)cc1N(CC(=O)O)CCOCCN2CC(=O)O,Kd,[4],~0.0001 mM
same,Kd,[1]; [8],~70 mM
COC(=O)CN1CCOCCOCCOCCOc2cc(-c3c4cc(F)c(=O)cc-4oc4cc(O)c(F)cc34)ccc21 [Compound 86],"Response to complexation (R = F/F0), R (Li^+)",[6],6.8
same,"Response to complexation (R = F/F0), R (K^+)",[5]; [9],6.9
same,"Response to complexation (R = F/F0), R (Rb^+)",[7],2.7
same,"Response to complexation (R = F/F0), R (Na^+)",[1]; [9],28.5
same,Kd,[1]; [10],82 mM
COCCN1CCOCCOCCOCCOc2cc(-c3cc4ccc(C(=O)OC)cc4[nH]3)ccc21 [Compound 120],"Response to complexation (R = F/F0), R (Na^+)",[1]; [9],2
same,Kd,[1]; [10],89 mM
COC(=O)CN1CCOCCN(CC(=O)OC)c2ccc(-c3c4ccc(=[N+](C)C)cc-4oc4cc(N(C)C)ccc34)cc2OCCOc2cc(C)ccc21,Kd,[1]; [8],~95 mM
Cc1ccc2c(c1)OCCOc1cc(-c3c4cc(F)c(=O)cc-4oc4cc(O)c(F)cc34)ccc1N(CC(N)=O)CCOCCN2CC(N)=O,Kd,[4],~0.6 mM
